Tested on: T315I Bcr-Abl BaF3 cells
Test: Cell proliferation (Resazurin) of T315I Bcr-Abl transduced BaF3 cells
Type: cell-based
Conditions: two day treatment, without IL-3

## CC(C)n1nc(-c2ccc(NC(=O)Nc3cccc(C(F)(F)F)c3)cc2)c2c(N)ncnc21 [AD57, 1-(4-(4-amino-1-isopropyl-1H-pyrazolo[3,4-d]pyrimidin-3-yl)phenyl)-3-(3-(trifluoromethyl)phenyl)urea]
  inhibition of growth of T315I Bcr-Abl BaF3 cells: equally inhibits the growth
